Results from patent US20090148850A1, “Methods for identifying modulators of P2RY14” (priority 2007, published 2009).

Assays:
Type in all cases: cell-based
mouse P2RY14 = target: T1, mouse P2RY14 (Mus musculus, UniProt Q9ESG6); assay: FLIPR whole cell Ca2+ agonist assay, HEK cells expressing mouse P2RY14 and Gqi5
T1 construct: expressed in transfected cells
T1 sequence (Q9ESG6 1-338): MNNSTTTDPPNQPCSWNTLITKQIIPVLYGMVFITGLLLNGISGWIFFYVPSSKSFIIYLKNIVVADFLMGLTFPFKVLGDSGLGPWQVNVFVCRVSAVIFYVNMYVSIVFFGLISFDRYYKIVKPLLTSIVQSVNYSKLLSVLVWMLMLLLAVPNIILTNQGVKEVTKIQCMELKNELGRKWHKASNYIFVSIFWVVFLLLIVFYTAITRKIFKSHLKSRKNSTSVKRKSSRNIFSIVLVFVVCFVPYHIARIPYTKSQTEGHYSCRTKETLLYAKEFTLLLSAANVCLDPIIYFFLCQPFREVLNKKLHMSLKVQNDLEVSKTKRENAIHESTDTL
Source text: (§1) Stable HEK clonal cell lines expressing P2RY14 and the chimeric G protein Gqi5 were constructed. The chimeric Gqi5 forces the coupling of P2RY14 through the Gq (calcium) pathway and allows for monitoring of calcium signaling using a calcium binding fluorescent dye and a FLIPR (fluorometric imaging plate reader, MDS Sciex). Vector pCEP4 comprising the chimeric Gqi5 was obtained from Molecular Devices, Sunnyvale, Calif. (Cat. No. RD-PGQI5).
The nucleic acid encoding the mouse P2RY14 was under the control of the CMV promoter.
(§2) Cells were grown in DMEM medium containing 25 mM HEPES, pH 7.4 and 10% FBS, 50 units/ml penicillin/50 μg/ml streptomycin, 2 mM glutamine and 1 mM sodium pyruvate at 37° C. in humidified air containing 5% CO2. Two days post-transfection, cells were grown under selection in the DMEM medium as indicated above and supplemented with 200 μg/ml Hygromycin B and 250 μg/ml geneticin.
(§3) Cells were incubated overnight at 37° C. and 5% CO2 to form a monolayer. On the following day, 30 μl of fluorescent no-wash dye was added to the cell monolayer and the plate was incubated for 60 minutes at 37° C., 5% CO2.
(§4) For agonist assays, 6.12 μl of 10× agonist solution was added to the cell/dye incubation and Ca^2+ signaling was monitored by FLIPR. For antagonist assays, 250 nl of compound in 100% DMSO was added to cell/dye mixture; following a 20 minute incubation at room temperature, 6.12 μl of 10× agonist solution at EC80 in HBSS containing 20 mM Hepes was added to cells and Ca^2+ signaling was monitored by FLIPR. Quantitation of the % stimulation or inhibition of Ca^2+ signaling by agonist or antagonist, respectively, was calculated using the Max-Min fluorescent signal detected.

[1] = tested on: HEK cells not expressing P2RY14; assay: FLIPR Ca2+ release in HEK cells not expressing P2RY14 (specificity)
[2] = tested on: simian (chimpanzee) P2RY14; assay: CellKey System live cell functional assay, simian P2RY14; conditions: HEK cells expressing simian P2RY14 and Gqi5
Protocol: (§5) The Cellkey System™ (MDS Sciex), a novel, live cell, label-free, real-time technology, was used to examine P2RY14 activation following agonist stimulation. The CellKey System™ is based on cellular dielectric spectroscopy (CDS) and monitors changes in impedance of the applied electrical current through the cell monolayer upon receptor activation.
(§6) On the following day, growth medium was removed from the cell monolayer and replaced with 135 μl of HBSS pH 7.4 containing 20 mM Hepes for a 30 minutes pre-incubation period at room temperature. Baseline measurements were made for 5 minutes at 28° C. prior to ligand addition. For agonist assays, 15 μl of 10× agonist diluted in HBSS pH 7.4 containing 20 mM HEPES was added to the cell monolayer simultaneously using the 96 multichannel head from the CellKey™ System. Cellular response was monitored for 10 minutes to assess cellular response after ligand addition.

[3] = tested on: simian (chimpanzee) P2RY14; assay: FLIPR whole cell Ca2+ agonist assay, HEK cells expressing simian (chimpanzee) P2RY14 and Gqi5
Source text: as §1
The simian (chimpanzee) P2RY14 nucleic acid fragment was synthesized based upon the Ensembl Gene ID ENSPTRG00000030093 by Bio S & T, Montreal, Quebec, Canada, to be flanked with KpnI and NotI restriction enzyme sites. […] The DNA fragment was digested with KpnI and NotI and then cloned into a pcDEF3 vector previously digested with KpnI and NotI to place the DNA fragment in the proper orientation downstream of the human EF-1a promoter. The nucleic acid encoding the simian P2RY14 was under the control of the human EF-1a promoter.
as §2, §3, §4

P2RY14 [4] = target: T2, P2RY14 (Homo sapiens, UniProt Q15391); assay: FLIPR whole cell Ca2+ agonist assay, HEK cells expressing human P2RY14 and Gqi5; parameters: expressed in transfected cells; conditions: HEK cells expressing human P2RY14 and Gqi5, FLIPR
T2 sequence (Q15391 1-338): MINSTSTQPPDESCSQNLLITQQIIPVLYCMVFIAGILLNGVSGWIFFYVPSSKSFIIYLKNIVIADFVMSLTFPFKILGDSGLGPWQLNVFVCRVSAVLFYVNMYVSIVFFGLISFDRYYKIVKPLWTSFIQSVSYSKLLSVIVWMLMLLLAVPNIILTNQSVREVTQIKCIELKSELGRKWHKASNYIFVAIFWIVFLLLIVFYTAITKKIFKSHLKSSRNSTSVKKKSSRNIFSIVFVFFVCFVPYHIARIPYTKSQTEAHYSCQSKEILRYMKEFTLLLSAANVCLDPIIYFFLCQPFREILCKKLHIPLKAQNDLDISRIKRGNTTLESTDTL
Source text: as §1
The human P2RY14 was PCR amplified from the I.M.A.G.E. clone obtained from Invitrogen, Carlsbad, Calif. […] The codon encoding glutamate at position 54 in the wild-type human P2RY14 was changed to code for lysine. […] The PCR reaction was done in two parts. In the first part, the reaction was 5 cycles at 94° C. for 30 seconds, 65° C. for 30 seconds, and 72° C. for 90 seconds. In the second part, the reaction was 25 cycles at 94° C. for 30 seconds, 70° C. for 30 seconds, 72° C. for 90 seconds. The last cycle was followed by 7 minutes at 72° C. The PCR amplified human P2RY14 was digested with KpnI and NotI and cloned into a pcDNA3.1 (+) vector previously digested with KpnI and NotI to place the DNA fragment in the proper orientation downstream of the CMV promoter. The nucleic acid encoding the human P2RY14 was under the control of the CMV promoter.
as §2, §3, §4

P2RY14 [5] = target: T2, P2RY14; assay: CellKey System live cell functional assay, human P2RY14; parameters: expressed in transfected cells; conditions: HEK cells expressing human P2RY14 and Gqi5
Protocol: as §5, §6

SMILES: O=c1ccn([C@@H]2O[C@H](COP(=O)(O)O)[C@@H](O)[C@H]2O)c(=O)[nH]1 [UMP]
- activation of P2RY14 (Ca2+ signaling) (mouse P2RY14): activated
- Ca2+ release in cells not expressing P2RY14 [1]: do not stimulate Ca^2+ release
- P2RY14 signaling (impedance, CellKey) [2]: mediated signaling
- activation of P2RY14 (Ca2+ signaling) [3]: activated
- activation of P2RY14 (Ca2+ signaling) (P2RY14 [4]): activated
- P2RY14 signaling (impedance, CellKey) (P2RY14 [5]): mediated signaling
